One may read the Tmax as the time at which the peak concentration occurs.

The subject of series [1] is Homo sapiens. The series can be described thus: Tlast in human at 15 mg, po administered as single dose by liquid scintillation counting method. Format: ADME, organism-based. To be noted: in vivo.
Series [2] concerns Plasma. As to the kind of experiment: Drug level in human plasma treated with [14C}LY2452473 at 15 mg, po after 4 hrs administered as single dose by HPLC analysis relative to total radioactivity. Format: ADME, organism-based. To be noted: in vivo.
For series [3], the target named is T1, Cytochrome P450 2C9 (Homo sapiens, UniProt P11712). As to the kind of experiment: Normalized intrinsic clearance assessed as human recombinant CYP2C9-mediated drug depletion per pmol protein by LC-MS/MS method. Format: ADME. As to conditions: recombinant enzyme.
For series [4], the system named is Homo sapiens. As to the kind of experiment: Tmax in human at 15 mg, po administered as single dose by liquid scintillation counting method. Format: ADME, organism-based. To be noted: in vivo.
Series [5] can be described thus: Total drug excretion in human treated with [14C}LY2452473 at 15 mg, po administered as single dose by HPLC analysis. Format: ADME, organism-based. As to conditions: in vivo, read-out: Drug excretion.
Series [6] addresses T2, Cytochrome P450 2D6 (Homo sapiens, UniProt P10635). The series can be described thus: Normalized intrinsic clearance assessed as human recombinant CYP2D6-mediated drug depletion per pmol protein by LC-MS/MS method. Format: ADME. To be noted: recombinant enzyme.
Series [7] addresses T2, Cytochrome P450 2D6. As to the kind of experiment: Fraction metabolized assessed as human recombinant CYP2D6-mediated drug depletion by LC-MS/MS method relative to total normalized intrinsic clearance. Format: ADME. As to conditions: recombinant enzyme.
Series [8] has as its target T1, Cytochrome P450 2C9. The series can be described thus: Drug metabolism in human liver microsomes assessed as CYP3A4-mediated drug depletion in presence of CYP2C9 inhibitor sulfaphenazole by LC-MS/MS method. Format: ADME. On the technique in general: Microsomes from liver hold many membrane-bound enzymes, among them those of drug oxidation.
In series [9] the target is Cytochrome P450 2E1 (Homo sapiens, UniProt P05181). As to the kind of experiment: Drug metabolism assessed as human recombinant CYP2E1-mediated drug depletion by LC-MS/MS method. Format: ADME. As to conditions: recombinant enzyme.
In series [10] the target is T3, Cytochrome P450 2J2 (Homo sapiens, UniProt P51589).
T3 sequence (P51589 whole entry): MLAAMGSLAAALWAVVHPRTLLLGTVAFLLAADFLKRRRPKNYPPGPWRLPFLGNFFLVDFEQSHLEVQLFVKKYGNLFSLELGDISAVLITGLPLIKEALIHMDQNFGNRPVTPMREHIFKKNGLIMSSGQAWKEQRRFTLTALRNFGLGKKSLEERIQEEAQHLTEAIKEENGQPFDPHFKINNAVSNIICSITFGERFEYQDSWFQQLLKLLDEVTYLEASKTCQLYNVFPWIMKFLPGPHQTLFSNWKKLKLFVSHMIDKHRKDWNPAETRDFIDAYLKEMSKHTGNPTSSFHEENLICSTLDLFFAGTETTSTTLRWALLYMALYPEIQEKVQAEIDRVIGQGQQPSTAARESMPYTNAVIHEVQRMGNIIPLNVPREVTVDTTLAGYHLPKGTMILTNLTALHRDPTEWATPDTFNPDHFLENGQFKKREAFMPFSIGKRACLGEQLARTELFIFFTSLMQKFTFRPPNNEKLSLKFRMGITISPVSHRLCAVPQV
As to the kind of experiment: Fraction metabolized assessed as human recombinant CYP2J2-mediated drug depletion by LC-MS/MS method relative to total normalized intrinsic clearance. Format: ADME. As to conditions: recombinant enzyme.

The target in series [11] is T4, Cytochrome P450 2C19 (Homo sapiens, UniProt P33261). The series can be described thus: Normalized intrinsic clearance assessed as human recombinant CYP2C19-mediated drug depletion per pmol protein by LC-MS/MS method. As to conditions: recombinant enzyme. Format: ADME.
The target in series [12] is T5, Cytochrome P450 3A4 (Homo sapiens, UniProt P08684). The series can be described thus: Normalized intrinsic clearance assessed as human recombinant CYP3A4-mediated drug depletion per pmol protein by LC-MS/MS method. To be noted: recombinant enzyme. Format: ADME.
In series [13] the target is T6, Cytochrome P450 2C8 (Homo sapiens, UniProt P10632).
T6 sequence (P10632 whole entry): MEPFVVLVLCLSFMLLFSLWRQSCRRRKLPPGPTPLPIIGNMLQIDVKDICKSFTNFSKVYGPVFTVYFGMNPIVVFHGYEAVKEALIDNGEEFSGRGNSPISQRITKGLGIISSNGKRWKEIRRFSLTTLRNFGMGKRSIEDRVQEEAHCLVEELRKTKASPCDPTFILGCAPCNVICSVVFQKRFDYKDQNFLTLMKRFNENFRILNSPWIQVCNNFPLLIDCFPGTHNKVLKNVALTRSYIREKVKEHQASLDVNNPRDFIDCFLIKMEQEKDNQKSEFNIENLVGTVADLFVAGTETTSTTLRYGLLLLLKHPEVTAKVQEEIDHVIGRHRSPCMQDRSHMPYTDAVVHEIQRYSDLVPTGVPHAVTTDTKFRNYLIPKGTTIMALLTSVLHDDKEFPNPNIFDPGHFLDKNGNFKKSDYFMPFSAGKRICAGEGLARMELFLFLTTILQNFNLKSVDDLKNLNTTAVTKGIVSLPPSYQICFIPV
The series can be described thus: Drug metabolism assessed as human recombinant CYP2C8-mediated drug depletion by LC-MS/MS method. Format: ADME. As to conditions: recombinant enzyme.

The target in series [14] is T5, Cytochrome P450 3A4. As to the kind of experiment: Drug metabolism in human liver microsomes assessed as CYP3A4-mediated drug depletion in presence of CYP3A4 inhibitor ketoconazole by LC-MS/MS method. Format: ADME.
In series [15] the target is T2, Cytochrome P450 2D6. As to the kind of experiment: Intrinsic clearance assessed as human recombinant CYP2D6-mediated drug depletion per pmol protein by LC-MS/MS method. To be noted: recombinant enzyme. Format: ADME.
Series [16] in a line: Drug excretion in feces of human treated with [14C}LY2452473 at 15 mg, po administered as single dose by HPLC analysis. Format: ADME, organism-based. As to conditions: read-out: Drug excretion.
Series [17] has as its system Homo sapiens. As to the kind of experiment: Apparent volume of distribution during terminal phase in human at 15 mg, po administered as single dose by liquid scintillation counting method. As to conditions: in vivo. Format: ADME, organism-based.
Series [18] deals with T5, Cytochrome P450 3A4. As to the kind of experiment: Fraction metabolized assessed as human recombinant CYP3A4-mediated drug depletion by LC-MS/MS method relative to total normalized intrinsic clearance. Format: ADME. As to conditions: recombinant enzyme.
Series [19] addresses T4, Cytochrome P450 2C19. As to the kind of experiment: Drug metabolism in human liver microsomes assessed as CYP3A4-mediated drug depletion in presence of CYP2C19 inhibitor modafinil by LC-MS/MS method. Format: ADME.
For series [20], the target named is T4, Cytochrome P450 2C19. As to the kind of experiment: Fraction metabolized assessed as human recombinant CYP2C19-mediated drug depletion by LC-MS/MS method relative to total normalized intrinsic clearance. Format: ADME. As to conditions: recombinant enzyme.

T2 sequence (P10635 whole entry): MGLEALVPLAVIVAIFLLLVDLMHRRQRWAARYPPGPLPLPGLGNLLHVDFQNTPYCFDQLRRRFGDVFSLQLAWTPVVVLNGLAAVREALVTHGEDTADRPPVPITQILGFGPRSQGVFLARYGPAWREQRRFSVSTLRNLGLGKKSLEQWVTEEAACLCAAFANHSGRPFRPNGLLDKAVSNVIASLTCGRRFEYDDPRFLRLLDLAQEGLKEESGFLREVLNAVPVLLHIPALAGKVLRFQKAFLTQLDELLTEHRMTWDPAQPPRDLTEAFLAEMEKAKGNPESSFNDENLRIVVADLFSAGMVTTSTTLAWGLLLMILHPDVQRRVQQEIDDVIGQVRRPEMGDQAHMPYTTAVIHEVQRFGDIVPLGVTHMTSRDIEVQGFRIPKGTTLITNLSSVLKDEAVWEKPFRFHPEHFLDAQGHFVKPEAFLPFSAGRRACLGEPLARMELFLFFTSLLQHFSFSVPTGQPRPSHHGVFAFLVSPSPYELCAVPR
T5 sequence (P08684 whole entry): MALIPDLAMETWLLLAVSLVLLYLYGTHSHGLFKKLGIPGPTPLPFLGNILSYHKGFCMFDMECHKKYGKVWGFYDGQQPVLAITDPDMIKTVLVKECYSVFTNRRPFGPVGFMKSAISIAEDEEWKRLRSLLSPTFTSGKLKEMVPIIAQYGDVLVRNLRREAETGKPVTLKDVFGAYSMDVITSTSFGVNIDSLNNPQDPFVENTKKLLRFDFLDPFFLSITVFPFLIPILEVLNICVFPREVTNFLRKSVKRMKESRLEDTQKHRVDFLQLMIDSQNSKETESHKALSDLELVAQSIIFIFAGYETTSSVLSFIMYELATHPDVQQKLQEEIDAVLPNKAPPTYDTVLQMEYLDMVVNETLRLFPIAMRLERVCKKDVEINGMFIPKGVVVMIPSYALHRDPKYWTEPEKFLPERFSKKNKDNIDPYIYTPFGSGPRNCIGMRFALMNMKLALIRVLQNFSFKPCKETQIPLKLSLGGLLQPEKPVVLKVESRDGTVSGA
T4 sequence (P33261 whole entry): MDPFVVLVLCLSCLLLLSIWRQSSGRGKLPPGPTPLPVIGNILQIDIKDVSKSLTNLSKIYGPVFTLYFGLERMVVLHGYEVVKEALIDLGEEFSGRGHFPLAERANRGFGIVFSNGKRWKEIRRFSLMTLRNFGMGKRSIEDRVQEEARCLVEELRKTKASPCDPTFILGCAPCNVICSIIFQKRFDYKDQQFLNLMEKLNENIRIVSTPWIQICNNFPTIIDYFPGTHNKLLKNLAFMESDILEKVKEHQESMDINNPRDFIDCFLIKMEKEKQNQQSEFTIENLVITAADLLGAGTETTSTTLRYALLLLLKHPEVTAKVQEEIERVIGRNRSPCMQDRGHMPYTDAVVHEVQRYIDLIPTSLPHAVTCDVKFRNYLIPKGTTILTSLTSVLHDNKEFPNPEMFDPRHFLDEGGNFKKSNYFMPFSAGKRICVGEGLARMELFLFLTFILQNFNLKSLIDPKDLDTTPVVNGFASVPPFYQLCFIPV
T1 sequence (P11712 whole entry): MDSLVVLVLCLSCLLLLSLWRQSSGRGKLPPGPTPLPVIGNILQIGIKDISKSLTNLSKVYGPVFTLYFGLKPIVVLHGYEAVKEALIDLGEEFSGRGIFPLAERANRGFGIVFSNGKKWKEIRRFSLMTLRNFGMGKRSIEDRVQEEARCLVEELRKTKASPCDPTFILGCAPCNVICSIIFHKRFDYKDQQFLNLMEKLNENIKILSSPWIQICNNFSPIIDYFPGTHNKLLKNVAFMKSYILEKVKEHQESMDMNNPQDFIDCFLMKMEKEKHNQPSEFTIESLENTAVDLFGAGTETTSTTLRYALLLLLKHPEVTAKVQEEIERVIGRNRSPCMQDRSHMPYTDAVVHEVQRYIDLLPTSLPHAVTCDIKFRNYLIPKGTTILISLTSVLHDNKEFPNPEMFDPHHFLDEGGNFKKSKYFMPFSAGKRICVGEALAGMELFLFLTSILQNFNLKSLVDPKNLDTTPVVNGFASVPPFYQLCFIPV
Sequence of Cytochrome P450 2E1 (P05181 whole entry): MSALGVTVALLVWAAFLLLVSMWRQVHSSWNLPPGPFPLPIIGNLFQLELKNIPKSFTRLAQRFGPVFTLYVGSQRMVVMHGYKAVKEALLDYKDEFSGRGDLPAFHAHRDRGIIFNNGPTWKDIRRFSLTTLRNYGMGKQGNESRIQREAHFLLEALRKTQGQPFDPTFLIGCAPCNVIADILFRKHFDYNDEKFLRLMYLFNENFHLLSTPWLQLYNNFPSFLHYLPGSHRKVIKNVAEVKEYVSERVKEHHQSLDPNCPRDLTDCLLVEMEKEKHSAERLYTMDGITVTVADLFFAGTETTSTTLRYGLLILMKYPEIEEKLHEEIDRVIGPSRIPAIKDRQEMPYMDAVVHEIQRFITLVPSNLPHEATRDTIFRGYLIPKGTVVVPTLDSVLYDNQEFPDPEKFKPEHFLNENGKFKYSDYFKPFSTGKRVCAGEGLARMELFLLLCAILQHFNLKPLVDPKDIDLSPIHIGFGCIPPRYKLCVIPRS

Regarding `CC(C)OC(=O)N[C@H]1Cc2c(n(Cc3ccccn3)c3ccc(C#N)cc23)C1` [LY2452473], in [1], the Tlast was 168 h. For the same compound, in series [2], the Drug uptake worked out at 42.2%. The CL in [3] amounted to 10 µL/min; in series [6] it was 3 µL/min; in [11], 5.7 µL/min; in [12], 80 µL/min; in series [15], 0.3 µL/min. Besides, the Tmax in series [4] was 2 h. Also, the dose excreted in series [5] and in series [16] was 1.84% in each case. Moreover, the Fm in [7] amounted to 2.6%; in series [10], 15%; in series [18], 68%; in [20], 4.9%. Further, the Drug metabolism entry in series [8], in series [9], in [13], in [14] and in series [19] was “metabolite_not_detected” each time. In addition, the Vz/F in series [17] came to 444 L.
